Test results as given in patent US12479836B2, “Sphingosine-1-phosphate receptor agonist, preparation method therefor, and pharmaceutical composition containing same as active ingredient” (priority 2019, dated 2025).

Target: T1, human sphingosine-1-phosphate 1 receptor (S1P1 receptor) (Homo sapiens, UniProt P21453)
T1 construct: host or cells: CHO-K1
Experiment: Ca2+ inducing ability (calcium increase, Calcium 5 assay kit) in CHO cells overexpressing human S1P1 receptor
Type: cell-based
Protocol: Experimental Example: Evaluation of Ca^2+ Inducing Ability of a Test Compound Using a Cell Line Expressing Human Sphingosine-1-Phosphate
It is a functional test method in which a therapeutic efficacy of an agonist compound is determined by an increase in calcium in CHO (Chinese hamster ovary) cells, which overexpress human sphingosine-1-phosphate 1 receptor (S1P1 receptor) that react with sphingosine-1-phosphate (S1P). […] coupled to Gi protein that reacts with the S1P1 receptor and increases intracellular calcium concentration. CHO-K1 cells, which are used for preparing a stable cell line, show no change in the calcium concentration by S1P, and thus they are good for checking signals from human S1P receptors after transfecting the cells with each subtype of the receptors.
To prepare CHO cells which overexpress human S1P1-S1P5, human clones for each subtype having HA at the N terminal residue (S1P1: EDG010 TN00, S1P2: EDG020TN00, S1P3: EDG030TN00, S1P4: EDG060TN00, S1P5: EDG080TN00) were purchased from Missouri S&T cDNA Resource Center and co-transfected with G-protein alpha subunit (G-alpha-16) into CHO-K1 cells. After separating cells by fluorescence-activated cell sorting (FACS, LK BioScience, JSAN) using HA-antibodies (MACS, Anti-HA-PE), they were selectively cultured in the medium with 10% FBS (Gibco, USA), 0.5 mg/mL Geneticin (Gibco) and 0.2 mg/mL Hygromycin B F12 (Gibco) to obtain the desired cells.
A calcium measurement kit (Calcium 5 assay kit, Molecular Devices) was used to select an agonist compound. The principle of calcium measurement is that calcium-sensitive dyes are applied to cells, they enter into the cytoplasm of the cells during incubation, and when a ligand binds to a certain receptor to release calcium into the cytoplasm, the dyes bind to said calcium to induce fluorescence which is measured. This test method can sensitively measure only the intracellular calcium concentration change because any change that may occur outside the cells is masked by a masking dye.
The experimental procedure was as follows. One day before calcium measurement, CHO cells overexpressing hS1P1-hS1P5 were dispensed into a 96-well plate (bottom clear black well) in 3×10^4 cells per well and cultured at 37° C. under 5% carbon dioxide condition for one day. 100 μl of calcium dyes mixed with Assay Buffer (1×HBSS, 20 mM HEPES, 2.5 mM probenecid, pH 7.4) were dispensed into culture solution in well and cultured at 37° C. for one hour. Test compounds were dissolved in 100% DMSO to prepare 1 μl solution per each concentration, and each solution was mixed with 199 μl Assay Buffer such that the concentrations were […]. The plate cultured with the calcium dyes was put into FlaxstationII (Molecular Devices), and the prepared test compounds (the final concentrations of the test compounds: 10, 1, 0.1, 0.01, 0.001 and 0.0001 μM) were programmed to be automatically inoculated in 50 μl per each well. For a total of 90 seconds, relative fluorescence unit (RFU) values were measured. The value of Reference (S1P substance 1 μM) deducting the blank value was set as 100%, and EC50 values of the test compounds were calculated by prism.

T1 sequence (P21453 whole entry): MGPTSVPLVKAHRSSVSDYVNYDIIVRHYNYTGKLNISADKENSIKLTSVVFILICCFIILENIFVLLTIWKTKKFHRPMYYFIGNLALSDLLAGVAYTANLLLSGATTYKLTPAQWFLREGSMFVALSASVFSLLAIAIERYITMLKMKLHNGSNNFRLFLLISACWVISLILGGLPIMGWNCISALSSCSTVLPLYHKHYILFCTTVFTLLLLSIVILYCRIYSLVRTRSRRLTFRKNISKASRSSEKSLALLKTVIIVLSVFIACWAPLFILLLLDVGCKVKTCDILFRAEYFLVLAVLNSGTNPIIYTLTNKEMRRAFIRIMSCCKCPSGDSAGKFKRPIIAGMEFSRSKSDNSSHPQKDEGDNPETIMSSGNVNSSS

SMILES | EC50 [µM]
CC(C)n1nc(Cl)c2cc(COc3ccc4c(c3)OCC(CN3CC[C@@H](C(=O)O)C3)=C4)ccc21 [Example 9, (R)-1-[7-(3-chloro-1-Isopropyl-1H-indazol-5-ylmethoxy)-2H-chromene-3-ylmethyl]-pyrrolidin-3-carboxylic acid] | 0.0144
CC(C)n1nc(Cl)c2cc(COc3ccc4c(c3)OCC(CN3CCC[C@@H](C(=O)O)C3)=C4)ccc21 [Example 5, (R)-1-[7-(3-chloro-1-Isopropyl-1H-indazol-5-ylmethoxy)-2H-chromene-3-ylmethyl]-piperidin-3-carboxylic acid] | 0.011
CC(C)n1nc(Cl)c2cc(COc3ccc4c(c3)OCC(CN3CC(C(=O)O)C3)=C4)ccc21 [Example 2, 1-[7-(3-chloro-1-isopropyl-1H-indazol-5-ylmethoxy)-2H-chromene-3-ylmethyl]-azetidin-3-carboxylic acid] | 0.00209
CC(C)n1nc(Cl)c2cc(COc3ccc4c(c3)OCC(CN(C)CC(=O)O)=C4)ccc21 [Example 1, {[7-(3-chloro-1-isopropyl-1H-indazol-5-ylmethoxy)-2H-chromene-3-ylmethyl]-methyl-amino}-acetic acid] | 0.00407
CC1=C(CN2CCC(C(=O)O)CC2)COc2cc(OCc3ccc4c(c3)c(Cl)nn4C(C)C)ccc21 [Example 10, 1-[7-(3-chloro-1-Isopropyl-1H-indazol-5-ylmethoxy)-4-methyl-2H-chromene-3-ylmethyl]-piperidin-4-carboxylic acid] | 0.00275
CC(C)n1nc(Cl)c2cc(COc3ccc4c(c3)OCC(CN3CCC(C(=O)O)CC3)=C4)ccc21 [Example 4, 1-[7-(3-chloro-1-isopropyl-1H-indazol-5-ylmethoxy)-2H-chromene-3-ylmethyl]-piperidin-4-carboxylic acid] | 0.00912
CC(C)n1nc(Cl)c2cc(COc3ccc4c(c3)OCC(CN3CC(CCl)(C(=O)O)C3)=C4)ccc21 [Example 8, 1-[7-(3-chloro-1-isopropyl-1H-indazol-5-ylmethoxy)-2H-chromene-3-ylmethyl]-chloromethyl-azetidin-3-carboxylic acid] | 0.00631
CCCn1nc2ccc(COc3ccc4c(c3)OCC(CN3CC(C(=O)O)C3)=C4)cc2c1Cl [Example 3, 1-[7-(3-chloro-2-propyl-2H-indazol-5-ylmethoxy)-2H-chromene-3-ylmethyl]-azetidin-3-carboxylic acid] | 0.0708
CC(C)n1nc(Cl)c2cc(COc3ccc4c(c3)OCC(CN3CCC[C@H](C(=O)O)C3)=C4)ccc21 [Example 6, (S)-1-[7-(3-chloro-1-H-isopropyl-1H-indazol-5-ylmethoxy)-2H-chromene-3-ylmethyl]-piperidin-3-carboxylic acid] | 0.0129
CC(C)n1nc(Cl)c2cc(COc3ccc4c(c3)OCC(CN3CC[C@H](C(=O)O)C3)=C4)ccc21 [Example 7, (S)-1-[7-(3-chloro-1-H-isopropyl-1H-indazol-5-ylmethoxy)-2H-chromene-3-ylmethyl]-pyrrolidin-3-carboxylic acid] | 0.00575

More lines, now with the values ahead:

EC50 [µM] | SMILES
0.0144 | CC(C)n1nc(Cl)c2cc(COc3cc(F)c4c(c3)OCC(CN3CCC(C(=O)O)CC3)=C4)ccc21 [Example 12, 1-[7-(3-chloro-1-H-isopropyl-1H-indazol-5-ylmethoxy)-5-fluoro-2H-chromene-3-ylmethyl]-piperidin-4-carboxyl acid]
0.00513 | CC(C)Cn1nc(Cl)c2cc(COc3cc(F)c4c(c3)OCC(CN3CCC(C(=O)O)CC3)=C4)ccc21 [Example 20, 1-[7-(3-chloro-1-isobutyl-1H-indazol-5-ylmethoxy)-5-fluoro-2H-chromene-3-ylmethyl]-piperidin-4-carboxylic acid]
0.0437 | CCCn1nc(Cl)c2cc(COc3ccc4c(c3)OCC(CN3CC(C(=O)O)C3)=C4)ccc21 [Example 16, 1-[7-(3-chloro-1-propyl-1H-indazol-5-ylmethoxy)-2H-chromene-3-ylmethyl]-azetidin-3-carboxylic acid]
0.0646 | O=C(O)C1CCN(CC2=Cc3ccc(OCc4ccc5c(c4)c(Cl)nn5CC4CC4)cc3OC2)CC1 [Example 18, 1-[7-(3-chloro-1-cyclopropylmethyl-1H-indazol-5-ylmethoxy)-2H-chromene-3-ylmethyl]-piperidin-4-carboxylic acid]
0.012 | CCc1nn(C(C)C)c2ccc(COc3ccc4c(c3)OCC(CN3CCC(C(=O)O)CC3)=C4)cc12 [Example 14, 1-[7-(1-H-isopropyl-3-ethyl-1H-indazol-5-ylmethoxy)-2H-chromene-3-ylmethyl]-piperidin-4-carboxylic acid]
0.0708 | O=C(O)C1CCN(CC2=Cc3c(F)cc(OCc4ccc5c(c4)c(Cl)nn5C4CCCC4)cc3OC2)CC1 [Example 19, 1-[7-(3-chloro-1-cyclopentyl-1H-indazol-5-ylmethoxy)-5-fluoro-2H-chromene-3-ylmethyl]-piperidin-4-carboxylic acid]
0.00631 | CC(C)n1nc(Cl)c2cc(COc3ccc4c(c3)OCC(CN3CCCC(C(=O)O)CC3)=C4)ccc21 (stereo not drawn) [Example 15, 1-[7-(3-chloro-1-isopropyl-1H-indazol-5-ylmethoxy)-2H-chromene-3-ylmethyl]-azepane-4-carboxylic acid]
0.0144 | CC(C)Cn1nc(Cl)c2cc(COc3cc(F)c4c(c3)OCC(CN3CCCC(C(=O)O)CC3)=C4)ccc21 (stereo not drawn) [Example 21, 1-[7-(3-chloro-1-Isobutyl-1H-indazol-5-ylmethoxy)-5-fluoro-2H-chromene-3-ylmethyl]-azepane-4-carboxylic acid]
0.00832 | CC(C)n1nc(Cl)c2cc(COc3ccc4c(c3)OCC(CN3CCC(C(=O)O)CC3)=C4Cl)ccc21 [Example 11, 1-[4-chloro-7-(3-chloro-1-H-isopropyl-1H-indazol-5-ylmethoxy)-2H-chromene-3-ylmethyl]-piperidin-4-carboxylic acid]
0.0174 | CC(C)n1nc(C(F)(F)F)c2cc(COc3ccc4c(c3)OCC(CN3CCC(C(=O)O)CC3)=C4)ccc21 [Example 13, 1-[7-(1-Isopropyl-3-trifluoromethyl-1H-indazol-5-ylmethoxy)-2H-chromene-3-ylmethyl]-piperidin-4-carboxylic acid]
0.0209 | CCCn1nc(Cl)c2cc(COc3ccc4c(c3)OCC(CN3CCC(C(=O)O)CC3)=C4)ccc21 [Example 17, 1-[7-(3-chloro-1-propyl-1H-Indazol-5-ylmethoxy)-2H-chromene-3-ylmethyl]-piperidin-4-carboxylic acid]
